Measured values published in patent US5366963A, “Gangliosides with immunosuppressive ceramide moieties” (The Regents of the University of California, priority 1993, dated 1994).
Several values for one entry are separate records, joined by “and”; a condition that tells them apart may be missing. Equal entries are not always repeated. Where two headings read alike, the source gives them in different places.

Tests used:
[1] = system: normal human peripheral blood mononuclear cells (PBMC); assay: cells; type: cell-based; settings: for inhibition at 5 µM / inhibition at 10 µM / inhibition at 2.5 µM: Homo sapiens, PBMC
[2] = system: humoral or cellular immunity; settings: Presti et al. 1989; cited from earlier work

| Compound | inhibition at 5 µM [1] | inhibition at 10 µM [1] | inhibition at 2.5 µM ([1]; read-out: % inhibition) | cpm (3H-thymidine uptake) [1] | immunosuppressive activity (in words) [1] | inhibition at 2.5 µM ([1]; read-out: % inhibition (NI)) | suppressive effect on humoral or cellular immunity in vivo [2] |
| --- | --- | --- | --- | --- | --- | --- | --- |
| CCCCCCCCCCCCC/C=C/[C@@H](O)[C@H](CO[C@@H]1O[C@H](CO)[C@@H](O[C@@H]2O[C@H](CO)[C@H](O[C@@H]3O[C@H](CO)[C@H](O)[C@H](O)[C@H]3NC(C)=O)[C@H](O[C@]3(C(=O)O)C[C@H](O)[C@@H](NC(C)=O)[C@H]([C@H](O)[C@H](O)CO)O3)[C@H]2O)[C@H](O)[C@H]1O)NC(=O)CCCCCCCCCCCCCCCCC [d18:1-C18:0 GM2] | 47% | 86% | 31% | – | – | – | – |
| CCCCCCCCCCCCC/C=C/[C@@H](O)[C@H](CO[C@@H]1O[C@H](CO)[C@@H](O[C@@H]2O[C@H](CO)[C@H](O[C@@H]3O[C@H](CO)[C@H](O)[C@H](O)[C@H]3NC(C)=O)[C@H](O[C@]3(C(=O)O)C[C@H](O)[C@@H](NC(C)=O)[C@H]([C@H](O)[C@H](O)CO)O3)[C@H]2O)[C@H](O)[C@H]1O)NC(=O)C(O)CCCCCCCCCCCCCCCC (stereo partly drawn) [d18:1-hC18:0 GM2] | 30% | 21% | – | 16.7 cpm × 10^-3 and 11.4 cpm × 10^-3 and 12.9 cpm × 10^-3 | less immunosuppressive than the non-hydroxylated species | < 0% | – |
| GM1 ganglioside | – | – | – | – | – | – | no evidence of a suppressive effect |
